Laboratory results: ChEMBL document CHEMBL1671859, “bla(IMP-4) in different genetic contexts in Enterobacteriaceae isolates from Australia” (2008)

Tests used:
Type in all cases: functional
[1] = tested on: Klebsiella pneumoniae; experiment: Antibacterial activity against Klebsiella pneumoniae isolate Kp2730 harboring IncL/M plasmid and blaIMP-4-qacG2-aacA4-catB3 and dfrA12-orfF-aadA2 arrays by Etest method in presence of clavulanic acid
[2] = tested on: Enterobacter cloacae; experiment: Antibacterial activity against Enterobacter cloacae isolate El1573 harboring IncL/M plasmid and blaIMP-4-qacG2-aacA4-catB3 array by Etest method in presence of clavulanic acid
[3] = tested on: Serratia marcescens; experiment: Antibacterial activity against Serratia marcescens isolate Sm2723 harboring IncL/M plasmid and blaIMP-4-qacG2-aacA4-catB3 array by Etest method in presence of clavulanic acid
[4] = tested on: Klebsiella pneumoniae; experiment: Antibacterial activity against Klebsiella pneumoniae isolate Kp7564 harboring IncL/M plasmid and blaIMP-4-qacG2-aacA4-catB3 array by Etest method in presence of clavulanic acid
[5] = tested on: Citrobacter amalonaticus; experiment: Antibacterial activity against Citrobacter amalonaticus isolate Ca38009 harboring IncL/M plasmid and blaIMP-4-qacG2-aacA4-catB3 array by Etest method in presence of clavulanic acid
[6] = tested on: Klebsiella pneumoniae; experiment: Antibacterial activity against Klebsiella pneumoniae isolate Kp38009 harboring IncL/M plasmid and blaIMP-4-qacG2-aacA4-catB3 array by Etest method in presence of clavulanic acid
[7] = tested on: Escherichia coli; experiment: Antibacterial activity against Escherichia coli isolate Ec9381 harboring IncL/M plasmid and blaIMP-4-qacG2-aacA4-catB3 array by Etest method in presence of clavulanic acid
[8] = tested on: Morganella morganii; experiment: Antibacterial activity against Morganella morganii isolate Mm1229 harboring IncL/M plasmid and blaIMP-4-qacG2-aacA4-catB3 array by Etest method in presence of clavulanic acid
[9] = tested on: Enterobacter cloacae; experiment: Antibacterial activity against Enterobacter cloacae isolate El3799 harboring IncL/M plasmid and blaIMP-4-qacG2-aacA4-catB3 array by Etest method in presence of clavulanic acid
[10] = tested on: Klebsiella pneumoniae; experiment: Antibacterial activity against Klebsiella pneumoniae isolate Kp3799 harboring IncL/M plasmid and blaIMP-4-qacG2-aacA4-catB3 array by Etest method in presence of clavulanic acid
[11] = tested on: Klebsiella oxytoca; experiment: Antibacterial activity against Klebsiella oxytoca isolate Ko1156 harboring IncL/M plasmid and blaIMP-4-qacG2-aacA4-catB3 array by Etest method in presence of clavulanic acid
[12] = tested on: Citrobacter amalonaticus; experiment: Antibacterial activity against Citrobacter amalonaticus isolate Ca1614 harboring IncL/M plasmid and blaIMP-4-qacG2-aacA4-catB3 array by Etest method in presence of clavulanic acid
[13] = tested on: Citrobacter freundii; experiment: Antibacterial activity against Citrobacter freundii isolate Cf1614 harboring IncL/M plasmid and blaIMP-4-qacG2-aacA4-catB3 array by Etest method in presence of clavulanic acid
[14] = tested on: Klebsiella pneumoniae; experiment: Antibacterial activity against Klebsiella pneumoniae isolate Kp4614 in presence of clavulanic acid
[15] = tested on: Serratia marcescens; experiment: Antibacterial activity against Serratia marcescens isolate Sm220 harboring IncA/C plasmid and blaIMP-4-qacG2-aacA4-catB3 array by Etest method in presence of clavulanic acid
[16] = tested on: Serratia marcescens; experiment: Antibacterial activity against Serratia marcescens isolate Sm201 harboring IncA/C plasmid and blaIMP-4-qacG2-aacA4-catB3 array by Etest method in presence of clavulanic acid
[17] = tested on: Serratia marcescens; experiment: Antibacterial activity against Serratia marcescens isolate Sm203 harboring IncA/C plasmid and blaIMP-4-qacG2-aacA4-catB3 array by Etest method in presence of clavulanic acid
[18] = tested on: Escherichia coli; experiment: Antibacterial activity against Escherichia coli isolate Ec211 harboring IncA/C plasmid and blaIMP-4-qacG2-aacA4-catB3 array by Etest method in presence of clavulanic acid
[19] = tested on: Klebsiella pneumoniae; experiment: Antibacterial activity against Klebsiella pneumoniae isolate Kp266 harboring IncA/C plasmid and blaIMP-4-qacG2-aacA4-catB3 array by Etest method in presence of clavulanic acid
[20] = tested on: Serratia marcescens; experiment: Antibacterial activity against Serratia marcescens isolate Sm211 harboring IncA/C plasmid and blaIMP-4-qacG2-aacA4-catB3 array by Etest method in presence of clavulanic acid
[21] = tested on: Citrobacter koseri; experiment: Antibacterial activity against Citrobacter koseri isolate Ck211 harboring IncA/C plasmid and blaIMP-4-qacG2-aacA4-catB3 array by Etest method in presence of clavulanic acid
[22] = tested on: Klebsiella pneumoniae; experiment: Antibacterial activity against Klebsiella pneumoniae isolate Kp204 harboring IncA/C plasmid and blaIMP-4-qacG2-aacA4-catB3 array by Etest method in presence of clavulanic acid
[23] = tested on: Serratia marcescens; experiment: Antibacterial activity against Serratia marcescens isolate Sm265 harboring IncA/C plasmid and blaIMP-4-qacG2-aacA4-catB3 array by Etest method in presence of clavulanic acid
[24] = tested on: Klebsiella pneumoniae; experiment: Antibacterial activity against Klebsiella pneumoniae Kp2730 transconjugant harboring IncL/M plasmid and blaIMP-4-qacG2-aacA4-catB3 and dfrA12-orfF-aadA2 arrays by Etest method in presence of clavulanic acid
[25] = tested on: Citrobacter amalonaticus; experiment: Antibacterial activity against Citrobacter amalonaticus Ca3927 transconjugant harboring IncL/M plasmid and blaIMP-4-qacG2-aacA4-catB3 array by Etest method in presence of clavulanic acid
[26] = tested on: Serratia marcescens; experiment: Antibacterial activity against Serratia marcescens Sm2723 transconjugant harboring IncL/M plasmid and blaIMP-4-qacG2-aacA4-catB3 array by Etest method in presence of clavulanic acid
[27] = tested on: Citrobacter amalonaticus; experiment: Antibacterial activity against Citrobacter amalonaticus Ca38009 transconjugant harboring IncL/M plasmid and blaIMP-4-qacG2-aacA4-catB3 array by Etest method in presence of clavulanic acid
[28] = tested on: Morganella morganii; experiment: Antibacterial activity against Morganella morganii Mm38009 transconjugant harboring IncL/M plasmid and blaIMP-4-qacG2-aacA4-catB3 array by Etest method in presence of clavulanic acid
[29] = tested on: Escherichia coli; experiment: Antibacterial activity against Escherichia coli Ec9381 transconjugant harboring IncL/M plasmid and blaIMP-4-qacG2-aacA4-catB3 array by Etest method in presence of clavulanic acid
[30] = tested on: Morganella morganii; experiment: Antibacterial activity against Morganella morganii Mm1229 transconjugant harboring IncL/M plasmid and blaIMP-4-qacG2-aacA4-catB3 array by Etest method in presence of clavulanic acid
[31] = tested on: Klebsiella pneumoniae; experiment: Antibacterial activity against Klebsiella pneumoniae Kp3799 transconjugant harboring IncL/M plasmid and blaIMP-4-qacG2-aacA4-catB3 array by Etest method in presence of clavulanic acid
[32] = tested on: Klebsiella oxytoca; experiment: Antibacterial activity against Klebsiella oxytoca Ko0426 transconjugant harboring IncL/M plasmid and blaIMP-4-qacG2-aacA4-catB3 array by Etest method in presence of clavulanic acid
[33] = tested on: Klebsiella oxytoca; experiment: Antibacterial activity against Klebsiella oxytoca Ko1156 transconjugant harboring IncL/M plasmid and blaIMP-4-qacG2-aacA4-catB3 array by Etest method in presence of clavulanic acid
[34] = tested on: Escherichia coli; experiment: Antibacterial activity against Escherichia coli Ec158 transconjugant harboring IncA/C plasmid and blaIMP-4-qacG2-aacA4-catB3 array by Etest method in presence of clavulanic acid
[35] = tested on: Citrobacter koseri; experiment: Antibacterial activity against Citrobacter koseri Ck211 transconjugant harboring IncA/C plasmid and blaIMP-4-qacG2-aacA4-catB3 array by Etest method in presence of clavulanic acid
[36] = tested on: Klebsiella oxytoca; experiment: Antibacterial activity against Klebsiella oxytoca Ko238 transconjugant harboring IncA/C plasmid and blaIMP-4-qacG2-aacA4-catB3 array by Etest method in presence of clavulanic acid

Measured: MIC

CC1(C)S[C@@H]2[C@H](NC(=O)[C@H](N)c3ccc(O)cc3)C(=O)N2[C@H]1C(=O)O [AMOXICILLIN]
> 16 µg/mL: all assays above
